Assay results taken from patent US20010051184A1, “METHOD FOR USING SOLUBLE CURCUMIN TO INHIBIT PHOSPHORYLASE KINASE IN INFLAMMATORY DISEASES” (priority 1999, published 2001).

How the values were obtained:
[1] = Solubility study on curcumin; format: physicochemical; conditions: for Solubility result: 0.5 g of curcumin
Description: Table 1 reports the results of a solubility study on curcumin. […] Curcumin is also not soluble in cold mineral oil or hot mineral oil. However, curcumin is soluble in 70% isopropyl alcohol to at least the extent of 0.5 g/50 ml.

phosphorylase kinase = assay: Phosphorylase kinase activity in treated psoriatic epidermis (Example 6); format: in vivo, human; conditions: mean±SD, n=10; curcumin alcoholic gel (1%) 4-6 weeks, Dovonex ointment 6-18 months; untreated psoriasis 1204.6±804.3, normal skin 105.4±44.6
Description: With consent, punch biopsies were collected (6 mm) from active plaques of 10 patients with active untreated psoriasis, from resolving plaques from 10 patients each treated with curcumin alcoholic gel (1%) for 4-6 weeks, and with Dovonex ointment for 6-18 months. Normal skin was also biopsied from 10 non-psoriatic patients to monitor the results. From each site, skin biopsy samples (6 mm punch) were stored at −70° C., and processed thereafter as previously described (Heng et al. (1994), supra). Briefly, each frozen sample, with the epidermal surface facing upwards, was placed in a glass tube to which 3 ml Tris-HCl buffer (10 mM Tris-HCl, pH 7.8, 1 mM dithiothreitol (DDT), 3 mM MgSO4 and 1 mM EGTA) was added. This was homogenized vigorously with a Teflon plunger in a TRIS-R model K41 homogenizer for 1 sec. Homogenization was repeated if necessary. The lysate of epidermal cells, separated from the dermis, was in the cytosolic solution. The fibroblasts that were inadvertently detached, together with the relatively intact piece of dermis, were removed by decanting the cytosolic solution into a 5 ml capacity polypropylene test tube. […] The filter paper containing […] was counted in a liquid scintillation counter. Enzyme activity was determined based on the standard curve prepared with phosphorylase kinase of known activity supplied by Sigma Co (St. Louis, Mo.).

TRR+ keratinocytes = assay: Transferrin receptor (TRR) expression by keratinocytes in treated psoriasis; format: in vivo, human; conditions: mean, n=10; treated resolving psoriasis; untreated 60.1%, normal skin 4.3%
Description: With consent, punch biopsies were collected (6 mm) from active plaques of 10 patients with active untreated psoriasis, from resolving plaques from 10 patients each treated with curcumin alcoholic gel (1%) for 4-6 weeks, and with Dovonex ointment for 6-18 months. Normal skin was also biopsied from 10 non-psoriatic patients to monitor the results. Biopsy specimens for immunocytochemistry were embedded in OCT compound (Tissue-Tek), snap-frozen in liquid nitrogen and stored at −70° C. Serial cryostat sections (4 Tm) were mounted on gelatin-coated slides and air-dried for 30 mins at room temperature. The mounted sections were then freeze-dried for 4 hours, fixed in acetone for 20 mins at room temperature, and air-dried for 5 mins prior to immunostaining. Monoclonal antibodies (as listed at Table 7), were added to the sections, which were then incubated for 60 mins at room temperature, washed in phosphate-buffered saline (PBS) pH 7.6, and overlaid with peroxidase conjugate. All monoclonal antibodies had been obtained from Becton-Dickinson and were used at 1:100 dilution. […] The expression of TRR on basal and suprabasal keratinocytes was quantified as the percentage of TRR+ keratinocytes per rete ridge. The keratinocytes of 10 consecutive rete ridges were assessed in for each biopsy and the results averaged.

[2] = tested on: parakeratosis of stratum corneum; assay: Severity of parakeratosis in treated psoriasis; format: in vivo, human; conditions: mean±SD, untreated 94.6±4.3%
From the text: With consent, punch biopsies were collected (6 mm) from active plaques of 10 patients with active untreated psoriasis, from resolving plaques from 10 patients each treated with curcumin alcoholic gel (1%) for 4-6 weeks, and with Dovonex ointment for 6-18 months. Normal skin was also biopsied from 10 non-psoriatic patients to monitor the results. Parakeratosis, assessed histologically by the loss of granular layer and the presence of nuclei of immature keratinocytes within the stratum comeum, reflects in part the migratory capacity of basal keratinocytes towards the stratum comeum. The severity of parakeratosis is assessed as % involvement of a 4 mm linear strip of stratum comeum. An average of three sections per biopsy specimen was used for data analysis.

epidermal CD8+ T cells = assay: Epidermal CD8+ T-cell density in treated psoriasis; format: in vivo, human; conditions: mean, untreated 38.2
Description: (§1) With consent, punch biopsies were collected (6 mm) from active plaques of 10 patients with active untreated psoriasis, from resolving plaques from 10 patients each treated with curcumin alcoholic gel (1%) for 4-6 weeks, and with Dovonex ointment for 6-18 months. Normal skin was also biopsied from 10 non-psoriatic patients to monitor the results. Biopsy specimens for immunocytochemistry were embedded in OCT compound (Tissue-Tek), snap-frozen in liquid nitrogen and stored at −70° C. Serial cryostat sections (4 Tm) were mounted on gelatin-coated slides and air-dried for 30 mins at room temperature. The mounted sections were then freeze-dried for 4 hours, fixed in acetone for 20 mins at room temperature, and air-dried for 5 mins prior to immunostaining. Monoclonal antibodies (as listed at Table 7), were added to the sections, which were then incubated for 60 mins at room temperature, washed in phosphate-buffered saline (PBS) pH 7.6, and overlaid with peroxidase conjugate. All monoclonal antibodies had been obtained from Becton-Dickinson and were used at 1:100 dilution. The sections were then washed with PBS and the peroxidase color developed using diaminobenzidine. Negative controls from all patients were processed as above, omitting the monoclonal antibodies. […] The density of the epidermal CD8+ T-cells was enumerated and quantified as the number of epidermal CD8+ T cells per hpf. […]

HLA-DR+ cells = assay: HLA-DR expression in treated psoriasis; format: in vivo, human
Description: as §1, with “diaminobenzidine.” for “diaminobenzidine. Negative controls from all patients were processed as above, omitting the monoclonal antibodies.”, “activated HLA+ inflammatory cell population” for “density of the epidermal CD8+ T-cells”, “assessed as abundant (200-500 or more cells/hpf), moderate (50-200 cells/hpf),” for “enumerated”, “sparse (1-50/hpf).” for “quantified as the number of epidermal CD8+ T cells per hpf.”

psoriatic plaques = assay: Clinical resolution of psoriatic plaques; format: in vivo, human; conditions: clinical observations
From the text: With consent, punch biopsies were collected (6 mm) from active plaques of 10 patients with active untreated psoriasis, from resolving plaques from 10 patients each treated with curcumin alcoholic gel (1%) for 4-6 weeks, and with Dovonex ointment for 6-18 months. Normal skin was also biopsied from 10 non-psoriatic patients to monitor the results.
In this study, the anti-psoriatic activity of curcumin is reported. Also known as diferuloylmethane, curcumin is a component in spices such as turmeric and ginger. […] Based on clinical observations that untreated psoriatic plaques resolve within 4-6 weeks with curcumin and between 6-18 months or more with Dovonex, the results of this Example lead to the conclusion that curcumin is at least as effective as Dovonex in producing clinical resolution of psoriatic plaques.

CD3+ T lymphocytes = CD3+ T lymphocytes in curcumin-treated psoriatic skin (immunohistochemistry, FIG. 9); format: in vivo, human; conditions: FIG. 9b; T lymphocytes present only within dermal blood vessels

Solubility in 70% isopropyl alcohol ([1]; 70% isopropyl alcohol): ≥ 0.5 g/50 ml | Solubility result ([1]; 70% isopropyl alcohol, 5 ml): Soluble (some precipitate? | Solubility result ([1]; 70% isopropyl alcohol, 50 ml): Soluble (no precipitate) | Solubility result ([1]; Cold water, 5 ml): Not soluble (precipitate present) | Solubility result ([1]; Cold water, 50 ml): Not soluble (precipitate present) | Solubility result ([1]; Cold water, 500 ml): Not soluble (precipitate present) | Solubility result ([1]; Mineral oil (140° F.), 5 ml): Not soluble (precipitate present) | Solubility result ([1]; Mineral oil (140° F.), 50 ml): Not soluble (precipitate present) | Solubility result ([1]; Mineral oil, 5 ml): Not soluble (precipitate present) | Solubility result ([1]; Mineral oil, 50 ml): Not soluble (precipitate present) | Solubility result ([1]; Water (200° F.), 5 ml): Not soluble (precipitate present) | Solubility result ([1]; Water (200° F.), 50 ml): Not soluble (precipitate present) | Solubility result ([1]; Water (200° F.), 500 ml): Not soluble (precipitate present) | Solubility ([1]; cold mineral oil): not soluble | Solubility ([1]; cold water): not soluble | Solubility ([1]; hot mineral oil): not soluble | Solubility ([1]; hot water): not soluble
SMILES: COc1cc(/C=C/C(=O)CC(=O)/C=C/c2ccc(O)c(OC)c2)ccc1O [curcumin, (E, E) 1,7-bis(4-hydroxy-3-methoxyphenyl)-1,6-heptadiene-3,5-dione]
Phosphorylase kinase activity in treated psoriatic epidermis (phosphorylase kinase): 207.2±97.6 units/mg protein | Percentage of TRR+ keratinocytes/rete ridge (TRR+ keratinocytes): 4.3% | Parakeratosis, linear involvement of stratum corneum [2]: 1.4±2.4% | Number of epidermal CD8+ cells/hpf (epidermal CD8+ T cells): 0.6 cells/hpf | Overall HLA-DR expression (HLA-DR+ inflammatory cell population), grade per specimen (HLA-DR+ cells; 10 skin specimens per treated group, untreated abundant in 10/10): sparse (sparse (1-50/hpf)) | HLA-DR expression on endothelial cells and keratinocytes (HLA-DR+ cells; treated psoriasis, untreated strongly positive): not observed | Time for psoriatic plaques to resolve under curcumin treatment (psoriatic plaques): 4-6 weeks | CD3+ T lymphocytes in epidermis of treated resolving psoriatic skin (CD3+ T lymphocytes): lack of T lymphocytes in epidermis
